From PubChem BioAssay (NCI)
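Five compound concentrations were applied to cells in 96-well plates for 48 hours; endpoints were derived by simple linear interpolation of the resulting dose-response curve. Definition used: TGI = concentration required for complete inhibition of growth.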

Legend:
Test in all cases: inhibition of tumour cell growth, NCI panel, 48 h
MALME-3M melanoma = test system: MALME-3M melanoma
NCI-H460 lung = test system: NCI-H460 lung
HOP-62 NSCLC = test system: HOP-62 NSCLC
SK-MEL-5 melanoma = test system: SK-MEL-5 melanoma
SNB-19 CNS = test system: SNB-19 CNS
U251 CNS = test system: U251 CNS
SF-268 CNS = test system: SF-268 CNS
SK-MEL-28 melanoma = test system: SK-MEL-28 melanoma
RXF 393 renal = test system: RXF 393 renal
SF-539 CNS = test system: SF-539 CNS

SMILES: CCC(C(=O)c1ccc(OC)c(OC)c1)N(C(=O)C(F)(F)F)C(C)c1ccccc1 (stereo not drawn)
- TGI (MALME-3M melanoma): > 100 µM
- TGI (NCI-H460 lung): > 100 µM
- TGI (HOP-62 NSCLC): > 100 µM
- TGI (SK-MEL-5 melanoma): > 100 µM
- TGI (SNB-19 CNS): > 100 µM
- TGI (U251 CNS): > 100 µM
- TGI (SF-268 CNS): > 100 µM
- TGI (SK-MEL-28 melanoma): > 100 µM

SMILES: CCN1CCC(O)(C(C(=O)O)c2ccccc2)CC1 (stereo not drawn)
- TGI (MALME-3M melanoma): > 100 µM
- TGI (NCI-H460 lung): > 100 µM
- TGI (HOP-62 NSCLC): > 100 µM
- TGI (SK-MEL-5 melanoma): > 100 µM
- TGI (SNB-19 CNS): > 100 µM
- TGI (RXF 393 renal): > 100 µM
- TGI (U251 CNS): > 100 µM
- TGI (SF-268 CNS): > 100 µM
- TGI (SK-MEL-28 melanoma): > 100 µM

SMILES: CC(C)(C)C1CCC2(CC1)c1[nH]c3ccccc3c1C1(CCC(C(C)(C)C)CC1)c1[nH]c3ccccc3c12 (stereo not drawn)
- TGI (MALME-3M melanoma): > 100 µM
- TGI (NCI-H460 lung): > 100 µM
- TGI (HOP-62 NSCLC): > 100 µM
- TGI (SK-MEL-5 melanoma): > 100 µM
- TGI (SNB-19 CNS): > 100 µM
- TGI (RXF 393 renal): > 100 µM
- TGI (SF-539 CNS): > 100 µM
- TGI (U251 CNS): > 100 µM
- TGI (SF-268 CNS): > 100 µM
- TGI (SK-MEL-28 melanoma): > 100 µM

SMILES: Nc1c(C(=O)c2ccc(Cl)cc2)[nH]c(NCc2ccccc2)c1C(=S)Nc1ccccc1
- TGI (NCI-H460 lung): 3.49 µM
- TGI (HOP-62 NSCLC): 12.9 µM
- TGI (SNB-19 CNS): 15.1 µM
- TGI (RXF 393 renal): 4.16 µM
- TGI (SF-539 CNS): 13.8 µM
- TGI (U251 CNS): 3.13 µM
- TGI (SF-268 CNS): 8.44 µM
- TGI (SK-MEL-28 melanoma): 3.22 µM

SMILES: NC(=O)c1cc2ccccc2o/c1=N/O
- TGI (NCI-H460 lung): > 100 µM
- TGI (HOP-62 NSCLC): > 100 µM
- TGI (SK-MEL-5 melanoma): > 100 µM
- TGI (SNB-19 CNS): > 100 µM
- TGI (RXF 393 renal): > 100 µM
- TGI (SF-539 CNS): > 100 µM
- TGI (U251 CNS): > 100 µM
- TGI (SF-268 CNS): > 100 µM
- TGI (SK-MEL-28 melanoma): > 100 µM

SMILES: Nc1ccc2[nH]c(-c3cccc(Cl)c3)cc(=O)c2c1
- TGI (MALME-3M melanoma): > 100 µM
- TGI (NCI-H460 lung): > 100 µM
- TGI (HOP-62 NSCLC): > 100 µM
- TGI (SK-MEL-5 melanoma): > 100 µM
- TGI (SNB-19 CNS): > 100 µM
- TGI (SF-539 CNS): 5.15 µM
- TGI (U251 CNS): 70.4 µM
- TGI (SK-MEL-28 melanoma): > 100 µM

SMILES: COc1ccc(Nc2nc3c([nH]2)c(=O)n(C)c(=O)n3C)cc1
- TGI (MALME-3M melanoma): > 10 µM
- TGI (HOP-62 NSCLC): > 10 µM
- TGI (SK-MEL-5 melanoma): > 10 µM
- TGI (RXF 393 renal): > 10 µM
- TGI (SF-268 CNS): > 10 µM
- TGI (SK-MEL-28 melanoma): > 10 µM

SMILES: CCCCc1ccc(Nc2nc3c(ncn3COCCO)c(=O)[nH]2)cc1
- TGI (MALME-3M melanoma): > 100 µM
- TGI (HOP-62 NSCLC): > 100 µM
- TGI (SK-MEL-5 melanoma): > 100 µM
- TGI (SNB-19 CNS): > 100 µM
- TGI (RXF 393 renal): > 100 µM
- TGI (SF-539 CNS): > 100 µM
- TGI (U251 CNS): > 100 µM
- TGI (SF-268 CNS): > 100 µM

SMILES: CCOc1cc(-c2nc3ccccn3c2/N=C/c2cc(Br)ccc2O)ccc1O
- TGI (MALME-3M melanoma): > 100 µM
- TGI (NCI-H460 lung): > 100 µM
- TGI (HOP-62 NSCLC): 44.8 µM
- TGI (SK-MEL-5 melanoma): > 100 µM
- TGI (SNB-19 CNS): 52.6 µM
- TGI (RXF 393 renal): 32 µM
- TGI (SF-539 CNS): > 100 µM
- TGI (U251 CNS): 40.2 µM
- TGI (SF-268 CNS): > 100 µM
- TGI (SK-MEL-28 melanoma): > 100 µM

SMILES: O=[N+]([O-])c1ccc(-c2ccc(-c3csc(Nc4ccccn4)n3)o2)cc1
- TGI (MALME-3M melanoma): > 100 µM
- TGI (HOP-62 NSCLC): 62.4 µM
- TGI (SNB-19 CNS): 77.4 µM
- TGI (U251 CNS): 28.5 µM
- TGI (SF-268 CNS): > 100 µM
- TGI (SK-MEL-28 melanoma): > 100 µM

SMILES: CC1(C)OCC2OC3([C@H]4OC(C)(C)O[C@@H]4CO)OC(C)(C)OC3C2O1 (stereo partly drawn)
- TGI (NCI-H460 lung): > 100 µM
- TGI (HOP-62 NSCLC): > 100 µM
- TGI (SK-MEL-5 melanoma): > 100 µM
- TGI (SNB-19 CNS): > 100 µM
- TGI (RXF 393 renal): > 100 µM
- TGI (SF-539 CNS): > 100 µM
- TGI (U251 CNS): > 100 µM
- TGI (SK-MEL-28 melanoma): > 100 µM

SMILES: CCOC(=O)/C(C#N)=N\Nc1ccc(-n2c(C)nc3ccccc3c2=O)cc1
- TGI (NCI-H460 lung): > 100 µM
- TGI (HOP-62 NSCLC): > 100 µM
- TGI (SK-MEL-5 melanoma): 36.6 µM
- TGI (SNB-19 CNS): > 100 µM
- TGI (SF-539 CNS): > 100 µM
- TGI (U251 CNS): > 100 µM
- TGI (SF-268 CNS): > 100 µM
- TGI (SK-MEL-28 melanoma): > 100 µM

SMILES: COc1cc2c(/C=C3/C(=O)Nc4ccccc43)c(Cl)[nH]c2cc1C
- TGI (NCI-H460 lung): 15.7 µM
- TGI (HOP-62 NSCLC): 26.4 µM
- TGI (SK-MEL-5 melanoma): 1.42 µM
- TGI (SNB-19 CNS): 17.5 µM
- TGI (RXF 393 renal): 24 µM
- TGI (SF-539 CNS): 0.225 µM
- TGI (U251 CNS): 10.9 µM
- TGI (SF-268 CNS): 18.5 µM
- TGI (SK-MEL-28 melanoma): 29.6 µM

SMILES: COc1c(Br)cc(CC(N)=O)c(O)c1Br
- TGI (MALME-3M melanoma): > 100 µM
- TGI (HOP-62 NSCLC): > 100 µM
- TGI (SK-MEL-5 melanoma): > 100 µM
- TGI (SNB-19 CNS): > 100 µM
- TGI (RXF 393 renal): > 100 µM
- TGI (SF-539 CNS): > 100 µM
- TGI (U251 CNS): > 100 µM
- TGI (SF-268 CNS): > 100 µM
- TGI (SK-MEL-28 melanoma): > 100 µM

SMILES: COC(=O)C1=Nc2c(C)nn(-c3ccccc3)c2N=C(c2ccc([N+](=O)[O-])cc2)C1
- TGI (MALME-3M melanoma): > 10 µM
- TGI (HOP-62 NSCLC): > 10 µM
- TGI (SK-MEL-5 melanoma): > 10 µM
- TGI (SNB-19 CNS): > 10 µM
- TGI (SF-539 CNS): > 10 µM
- TGI (U251 CNS): > 10 µM
- TGI (SF-268 CNS): > 10 µM
- TGI (SK-MEL-28 melanoma): > 10 µM

SMILES: O=C(Cc1ccc([N+](=O)[O-])cc1)OCC#CCOC(=O)Cc1ccc([N+](=O)[O-])cc1
- TGI (MALME-3M melanoma): > 10 µM
- TGI (NCI-H460 lung): > 10 µM
- TGI (SK-MEL-5 melanoma): > 10 µM
- TGI (SNB-19 CNS): > 10 µM
- TGI (RXF 393 renal): > 10 µM
- TGI (SF-539 CNS): > 10 µM
- TGI (U251 CNS): > 10 µM
- TGI (SF-268 CNS): > 10 µM

SMILES: Cn1c2ccccc2n2c(=O)c3cc([N+](=O)[O-])ccc3c(C#N)c12
- TGI (NCI-H460 lung): > 100 µM
- TGI (HOP-62 NSCLC): > 100 µM
- TGI (SK-MEL-5 melanoma): > 100 µM
- TGI (SNB-19 CNS): > 100 µM
- TGI (RXF 393 renal): > 100 µM
- TGI (SF-539 CNS): > 100 µM
- TGI (U251 CNS): > 100 µM
- TGI (SF-268 CNS): > 100 µM
- TGI (SK-MEL-28 melanoma): > 100 µM

SMILES: C=CCOCCCCC(C(C)=O)C(=O)OC (stereo not drawn)
- TGI (MALME-3M melanoma): > 100 µM
- TGI (NCI-H460 lung): > 100 µM
- TGI (SK-MEL-5 melanoma): > 100 µM
- TGI (SNB-19 CNS): > 100 µM
- TGI (RXF 393 renal): > 100 µM
- TGI (SF-539 CNS): > 100 µM
- TGI (U251 CNS): > 100 µM
- TGI (SF-268 CNS): > 100 µM
- TGI (SK-MEL-28 melanoma): > 100 µM

SMILES: COc1ccc2cc(NC(=O)N/N=C\c3ccc(Cl)cc3)ccc2c1
- TGI (MALME-3M melanoma): > 100 µM
- TGI (NCI-H460 lung): > 100 µM
- TGI (HOP-62 NSCLC): > 100 µM
- TGI (SNB-19 CNS): > 100 µM
- TGI (SF-539 CNS): > 100 µM
- TGI (U251 CNS): > 100 µM
- TGI (SF-268 CNS): > 100 µM
- TGI (SK-MEL-28 melanoma): > 100 µM

SMILES: O=C(Cc1ccccc1)NN1C(=O)/C(=C\c2ccc([N+](=O)[O-])cc2)SC1=Nc1ccccc1
- TGI (NCI-H460 lung): > 100 µM
- TGI (HOP-62 NSCLC): > 100 µM
- TGI (SK-MEL-5 melanoma): > 100 µM
- TGI (SNB-19 CNS): > 100 µM
- TGI (RXF 393 renal): > 100 µM
- TGI (SF-539 CNS): > 100 µM
- TGI (U251 CNS): > 100 µM
- TGI (SF-268 CNS): > 100 µM
- TGI (SK-MEL-28 melanoma): > 100 µM

SMILES: COC(=O)C1CC2(c3ccccc3)C(=O)c3ccccc3N2O1 (stereo not drawn)
- TGI (MALME-3M melanoma): > 100 µM
- TGI (NCI-H460 lung): > 100 µM
- TGI (HOP-62 NSCLC): > 100 µM
- TGI (SK-MEL-5 melanoma): > 100 µM
- TGI (SNB-19 CNS): > 100 µM
- TGI (SF-539 CNS): > 100 µM
- TGI (U251 CNS): > 100 µM
- TGI (SF-268 CNS): > 100 µM
- TGI (SK-MEL-28 melanoma): > 100 µM

SMILES: Cc1cc2[nH]c3c(C#N)c4c(c(=O)n3c2cc1C)CCCC4
- TGI (MALME-3M melanoma): > 100 µM
- TGI (NCI-H460 lung): > 100 µM
- TGI (SK-MEL-5 melanoma): > 100 µM
- TGI (SNB-19 CNS): > 100 µM
- TGI (SF-539 CNS): > 100 µM
- TGI (U251 CNS): > 100 µM
- TGI (SF-268 CNS): > 100 µM
- TGI (SK-MEL-28 melanoma): > 100 µM

SMILES: Brc1cc2nn(-c3ccccc3)nc2c2nonc12
- TGI (MALME-3M melanoma): > 100 µM
- TGI (NCI-H460 lung): > 100 µM
- TGI (HOP-62 NSCLC): > 100 µM
- TGI (SK-MEL-5 melanoma): > 100 µM
- TGI (SNB-19 CNS): > 100 µM
- TGI (SF-539 CNS): > 100 µM
- TGI (U251 CNS): > 100 µM
- TGI (SF-268 CNS): > 100 µM
- TGI (SK-MEL-28 melanoma): > 100 µM
